Results as given in article PMC4640066 (Nature Communications, 2015).

Biological target: T1, γ-TuSC (Saccharomyces cerevisiae, UniProt P53378)
T1 construct: made in house; host or cells: HighFive insect cells
T1 sequence (P53378 1-473): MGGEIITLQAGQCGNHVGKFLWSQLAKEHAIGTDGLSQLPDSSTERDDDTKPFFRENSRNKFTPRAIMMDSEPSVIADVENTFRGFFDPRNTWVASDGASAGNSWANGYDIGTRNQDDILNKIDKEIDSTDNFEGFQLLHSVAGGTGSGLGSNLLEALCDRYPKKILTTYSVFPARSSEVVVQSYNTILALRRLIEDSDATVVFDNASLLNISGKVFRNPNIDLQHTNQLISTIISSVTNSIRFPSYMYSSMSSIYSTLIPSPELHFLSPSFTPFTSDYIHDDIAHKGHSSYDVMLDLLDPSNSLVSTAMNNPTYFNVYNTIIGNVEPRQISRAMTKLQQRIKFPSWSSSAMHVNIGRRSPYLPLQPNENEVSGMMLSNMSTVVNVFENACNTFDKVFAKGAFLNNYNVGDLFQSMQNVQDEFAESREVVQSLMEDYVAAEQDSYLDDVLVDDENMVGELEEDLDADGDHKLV
T1 sequence (P38863 1-823 partner): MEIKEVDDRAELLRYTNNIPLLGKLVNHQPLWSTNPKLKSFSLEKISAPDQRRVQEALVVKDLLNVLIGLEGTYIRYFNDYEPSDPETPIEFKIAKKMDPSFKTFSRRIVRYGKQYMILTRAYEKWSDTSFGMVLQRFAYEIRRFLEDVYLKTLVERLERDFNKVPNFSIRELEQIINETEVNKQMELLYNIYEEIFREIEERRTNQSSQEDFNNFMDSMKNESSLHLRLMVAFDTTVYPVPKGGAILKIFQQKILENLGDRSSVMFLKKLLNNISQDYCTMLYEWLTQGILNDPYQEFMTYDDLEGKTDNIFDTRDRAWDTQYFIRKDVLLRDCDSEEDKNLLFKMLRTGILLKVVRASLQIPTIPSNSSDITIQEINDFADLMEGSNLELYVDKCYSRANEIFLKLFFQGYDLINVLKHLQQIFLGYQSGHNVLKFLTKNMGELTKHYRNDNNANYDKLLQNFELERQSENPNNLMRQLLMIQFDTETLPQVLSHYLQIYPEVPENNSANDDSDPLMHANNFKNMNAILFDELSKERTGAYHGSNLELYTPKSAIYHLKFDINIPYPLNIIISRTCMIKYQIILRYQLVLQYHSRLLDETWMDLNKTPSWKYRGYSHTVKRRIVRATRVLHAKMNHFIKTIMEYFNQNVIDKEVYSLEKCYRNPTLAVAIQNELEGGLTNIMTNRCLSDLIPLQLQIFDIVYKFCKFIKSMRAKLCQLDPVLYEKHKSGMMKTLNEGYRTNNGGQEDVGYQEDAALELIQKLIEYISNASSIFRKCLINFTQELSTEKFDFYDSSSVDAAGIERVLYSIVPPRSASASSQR
T1 sequence (P53540 1-846 partner): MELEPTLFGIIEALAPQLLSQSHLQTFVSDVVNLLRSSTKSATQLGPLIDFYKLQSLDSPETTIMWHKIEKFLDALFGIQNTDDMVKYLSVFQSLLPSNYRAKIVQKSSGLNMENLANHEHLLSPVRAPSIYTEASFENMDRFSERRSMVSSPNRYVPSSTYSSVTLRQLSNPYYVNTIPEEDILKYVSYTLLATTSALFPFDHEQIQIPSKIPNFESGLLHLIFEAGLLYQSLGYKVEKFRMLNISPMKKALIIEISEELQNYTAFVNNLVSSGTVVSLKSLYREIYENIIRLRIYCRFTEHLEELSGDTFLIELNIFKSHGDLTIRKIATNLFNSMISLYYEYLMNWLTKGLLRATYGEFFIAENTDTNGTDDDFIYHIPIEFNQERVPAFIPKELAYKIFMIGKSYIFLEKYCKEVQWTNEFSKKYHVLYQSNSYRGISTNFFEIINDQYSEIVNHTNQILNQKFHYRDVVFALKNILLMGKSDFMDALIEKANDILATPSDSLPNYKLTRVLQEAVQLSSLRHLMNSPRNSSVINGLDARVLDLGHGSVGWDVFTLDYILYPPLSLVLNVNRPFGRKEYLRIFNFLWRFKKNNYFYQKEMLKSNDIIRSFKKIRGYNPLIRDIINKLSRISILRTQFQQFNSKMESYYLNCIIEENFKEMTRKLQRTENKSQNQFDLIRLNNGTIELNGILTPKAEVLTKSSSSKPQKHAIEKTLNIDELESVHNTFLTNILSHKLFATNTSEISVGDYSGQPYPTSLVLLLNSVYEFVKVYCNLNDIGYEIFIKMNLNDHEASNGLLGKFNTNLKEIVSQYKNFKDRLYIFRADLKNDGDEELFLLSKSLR
Experiment: γ-TuSC capping to paclitaxel-stabilized MTs
Format: biochemical
Settings: 50 μM
Protocol: γ-TuSC was diluted in RB buffer containing 10 μM paclitaxel to reach a final protein concentration of 0.5 μM and incubated with 50 μM of gatastatin for 30 min at 25 °C. Polymerized MTs were prepared by incubation of ∼5 mg ml^−1 α/β-tubulin for 30 min at 37 °C with 1 mM GTP; then paclitaxel was added (final 10 μM). GTP was removed from paclitaxel-stabilized MTs with ultracentrifugation at 240,000g for 10 min at 25 °C. Paclitaxel-stabilized MTs were added to γ-TuSC (final ∼1.2 mg ml^−1). Next, γ-TuSC was incubated with paclitaxel-stabilized MTs for 30 min; MTs and MT-bound γ-TuSC were collected with ultracentrifugation at 240,000g for 10 min at 25 °C and finally placed on poly-L-lysine-coated coverslips. After incubation for 15 min, coverslips were immediately fixed with cold MeOH (−20 °C). Coverslips were blocked with PBS containing 0.5% bovine serum albumin and were incubated with anti-α-tubulin (1:200 dilution, MBL, Cat# PM054) and anti-penta His (1:200 dilution, Qiagen, Cat# 34660) antibodies. After staining with Alexa^488-conjugated anti-rabbit IgG (1:2000 dilution, Invitrogen) and Alexa^568-conjugated anti-mouse IgG (1:2000 dilution, Invitrogen), the coverslips were washed four times with PBS and mounted with PBS. γ-TuSC bound to MTs was observed under a LAS AF 6000 fluorescence microscope (Leica Microsystems, Wetzlar, Germany).

Effect on γ-TuSC binding to MT ends: impaired γ-TuSC binding to MT ends
SMILES: COc1cc2c(=O)c(-c3cc(OC)c4c(c3OC)OCO4)coc2cc1OCc1ccccc1 [Gatastatin, O^7-demethylbenzyl AG1]
